This is an account of results in patent US11202833B2, “Methylglyoxal-scavenging cyclic peptides and their use for the prevention and treatment of diseases associated with elevated methylglyoxal levels” (RUPRECHT-KARLS-UNIVERSITÄT HEIDELBERG, priority 2016, dated 2021).

On the set-up of data set [1]: species or system NMRI mice. Particulars: mouse, in vivo. How it is done: DOTA coupled peptides were labeled with ^68Ga as described previously (Wischnjow et al., 2016). In short ^68Ga was eluted from the generator into a tube containing 20 nmol of the peptide and 0.5% ascorbic acid in 0.5 M Na-acetate buffer. The mixture was incubated at pH 3.5-4.0 for 10′ at 95° C. while stirring to allow for the ^68Ga-DOTA complex to form. Free ^68Ga was removed using C18 solid phase extraction cartridges (Thermo Scientific, USA) and the product was checked by HPLC (Agilent Technologies, USA) equipped with a radio flow detector. The labeled peptide was injected i.v. into NMRI mice. PET analysis was carried out for 0-1 h and for another 20′ after 2 h while cumulative pictures are shown for 0-20 min, 40-60 min and 120-140 min.
Data was normalized for animal weight and injected dose and pictures and data are given as standardized uptake value [SUV]. For quantitative comparison the area under the curve for the SUV values of the different regions was determined and compared by Student's t-test.

For data set [2], the system named is human serum albumin (HSA). Put plainly: Competitive inhibition of HSA MG-H1 formation. Particulars: for prevention of HSA-MG-H1 formation: FIG. 2B, HSA with MG and scavenger. Format: biochemical. How it is done: In short, pure MG-1,1-dimethylacetal was heated in sulphuric acid solution for 1 h and fractionally distilled in a column containing glass helices under reduced pressure. Fractions were analyzed by ^1H and ^13C NMR. […] Two parts urea (8M urea, 0.5 M TrisHCl; pH8.0) were added to the solution and the sample was vortexed. HSA was precipitated by addition of two parts acetonitrile (respective to the final sample/urea mixture) and collected by centrifugation for 10′ at 13000 g. […] The HSA containing pellet was dissolved in 20 mM HCl and the protein content was determined by BCA assay. […] The amount of HSA-MG-H1 adduct was determined by LC-MS. Samples and standard curve were spiked with d3-MG-H1 (Polypeptide Group, San Diego, Calif., USA) and derivatized with Fmoc-Cl. Separation was performed on a C18 column (Hypersil Gold aQ; Thermo Scientific, USA) using a 20 min gradient of 0-100% acetonitrile (0.1% TFA) with the first five minutes diverted to waste. Analysis was carried out on an Exactive Orbitrap MS system (Thermo Scientific, USA). […] The calibration range used for the assay was 0-30 pmol.

Data set [3] in a line: MG scavenging in vitro (MG half-life by HPLC).
Experimental: (§1) Scavengers (400 μM) were incubated with MG (200 μM) in 0.1 M phosphate buffer, pH 7.4 at 37° C. The kinetics of the scavenging reaction was followed for 48 h. Samples were frozen in liquid nitrogen and stored at −80° C. until analysis. MG content was quantified by HPLC as described below.
(§2) In short samples were precipitated with 20% TCA at a ratio of 2/1 and vortex mixed. Internal standards ^13C MG (LC-MS/MS analysis) or 2,3-dimethylquinoxaline (HPLC analysis) and water was added and the sample mixed again. Samples were centrifuged at 13,000 g at 4° C. for 5 min and the supernatant derivatized with 1,2-diaminobenzene in the presence of sodium azide for 4 h at RT. For HPLC based MG analysis the linear gradient was 0-6% acetonitrile in 15 min. The MG-1,2-diaminobenzene adduct 2-methylquinoxaline and the internal standard 2,3-dimethylquinoxaline were detected with a UV monitor at 320 nm and eluted at 12.7 min and 14.2 min, respectively. For LC-MS/MS, samples were analyzed using an ACQUITY UPLC I equipped with a Xevo TQ-S mass spectrometer (Waters, USA). Samples were separated on BEH C18 analytical column (2.1×50 mm, 1.7 μm) fitted with pre-column (2.1×5 mm, 1.7 μm). Solvent A was water+0.1% formic and solvent B was 50% acetonitrile+0.1% formic acid and a linear gradient from 0-100% solvent B, over ten minutes was used with a flow rate of 0.2 ml/min. Injection volume was 1 μl and the column temperature was 20° C. The quinoxaline analytes were detected by electrospray positive ionization-mass spectrometric multiple-reaction monitoring (MRM). The source temperature was 150° C. and the desolvation gas temperature was 350° C. The cone gas and desolvation gas flow rates were 150 and 800 l/hr, respectively. The capillary voltage was 0.5 kV and the cone voltage was 20V. Mass transitions (parent ion >fragment ion; collision energy) and retention time were as follows: MG 145.01>77.10; 24 eV, 5.93 mins; [^13C3]-MG 148.07>77.16; 24 eV, 5.92 mins. The standard curve was in the range of 0-20 pmol and 0-1 nmol for LC MS/MS analysis and HPLC analysis, respectively.
Data set [4] in a line: Serum stability of 177Lu-labelled peptides. Format: in vitro ADME. Particulars: human serum, 37° C., after 24 h, 177Lu label. How it is done:
The cyclic peptide CycK(DOTA)K(Myr)R4E and the linear peptide K(DOTA)K(Myr)R4E were labeled with ^177Lu. In short 20 nmol of peptides were incubated with ^177Lu in 0.4 M Na-acetate buffer (pH 5.0) for 10′ at 95° C. Free ^177Lu was removed by C18 solid phase extraction cartridges, the products eluted with EtOH and checked by radio-HPLC. The radiolabelled peptides were reconstituted in human serum (H4522; Sigma-Aldrich) and incubated in serum at 37° C. for the times indicated. Serum was precipitated by addition of two parts acetonitrile centrifuged for 10 min at 13000 g and the supernatant analysed by HPLC (Agilent Technologies, USA) fitted with a radio flow detector using a 10 min gradient of 0-60% acetonitrile in water (0.1% TFA).

Data set [5] concerns washed human whole blood. Put plainly: Hemolysis. Particulars: 37° C., 30 min.
Experimental: (§3) Human whole blood was collected into EDTA tubes and centrifuged at 500 g at RT for 5 min. The plasma and buffy coat was removed and saline solution was added to the haematocrit containing pellet to the previous plasma level to wash the erythrocytes. The tube was gently inverted several times and centrifuged again at 500 g. This procedure was repeated until the supernatant remained clear (approx. 4 times). After the last centrifugation step the hematocrit was re-suspended in PBS to reach the original blood volume. […] Haemolysis was compared to saline solution (negative control; 0% haemolysis) and 1% Triton X100 solution (positive control; 100% haemolysis).
The test system of data set [6] is washed human whole blood.
Experimental: as §3
The conditions of data set [7]: 400 µM, pH 7.4.
Experimental: as §1, §2
The nature of the next data set: in vivo. Particulars: C57/B16, mouse, ip.
In data set [8] the test system is murine cardiac endothelial cells. It counts as cell-based. Particulars: mouse, 48 h, 1 mM. How it is done:
Murine cardiac endothelial cells were seeded on gelatine pre-coated 96 well plates at a density of 5000 cells per well in DMEM (1 g/1 glucose, 5% FCS, 1% Pen/Strep, 1% AmpB, 1% HEPES). On the following day cells were switched to medium containing only 0.1% FCS. […] MTT ((3-(4,5-Dimethylthiazol-2-yl)-2,5-Diphenyltetrazolium Bromide)) solution (50 μl of 2 mg/ml in PBS) was added to the wells and the plate was incubated at 37° C. for 3-4 h. Medium was removed and 200 μl of DMSO was added to lyse cells and solubilise the purple formazan crystals. The plate was incubated for 1 h at room temperature on a shaker and absorbance was measured at 590 nm. Intensity for untreated cells was set to 100%.

The conditions of data set [9]: Kinsky et al., 2016; cited from earlier work.

Numbered stars: 1 amine (or outer) side, 2 acyl side, 3 side chain; on linkers, the order of the positions; unused ones are H or OH. Bridge positions count the residues as written; N and C are the ends. Side chains are listed from the residue outwards. Peptide text beside a SMILES is read from it. * marks the point of attachment. ξ: configuration not given here. DOTA = O=C(O)CN1CCN(CC(=O)O)CCN(CC(=O)*)CCN(CC(=O)O)CC1; C16 diacid = O=C(O)CCCCCCCCCCCCCCC(=O)*; ξγGlu = O=C(O)C(CCC(=O)[*:2])N[*:1]; Myristoyl = CCCCCCCCCCCCCC(=O)*

Experimental for in vivo: Blood was collected by cardiac puncture in an aesthetised mice at time points 10′, 30′, 1 h, 4 h, 8 h and 24 h into tubes containing EDTA. Plasma was collected after centrifugation at 3000 g for 5′ at room temperature and frozen in liquid nitrogen.
Plasma was acidified with 5% TFA (5 μl/30 μl), acetonitrile (60 μl) was added and the tubes vortexed. Another 120 μl of acetonitrile were added and samples were ultrasonicated for 5 min. Samples were spun for 20 min at 13000 g. The supernatant (180 μl) was collected, mixed with 180 μl of water and freeze dried. The sample was resuspended in 30 μl of a mixture of acetonitrile/water (ratio of 1/1) containing 0.1% TFA. The samples was analysed by LC MS. Concentration was calculated by normalisation for the internal standard in combination with linear regression of a standard curve. Concentration/time-points were fitted using a one phase exponential decay model to determine the half-life of the drug.

In turn, `N=C(N)NCCC[C@@H]1NC(=O)[C@H](CCCNC(=N)N)NC(=O)[C@H](CCCNC(=N)N)NC(=O)[C@H](CCCNC(=N)N)NC(=O)[C@H](CCCCNC(=O)CN2CCN(CC(=O)O)CCN(CC(=O)O)CCN(CC(=O)O)CC2)NC(=O)CC[C@@H](C(=O)O)NC1=O` (68Ga complex, metal not drawn) [CycK(DOTA)R4E] (K(DOTA)RRRRE-OH; lactam N-6) had a completely excreted after in data set [1] not above 140 min. For the same molecule, the “excreted almost completely within/after” value in [1] (iv) was not above 20 min.

For `N=C(N)NN` [Agd, aminoguanidine], in data set [2], the “prevention of HSA-MG-H1 formation” value is “tended to be more efficient”.

As to `NCCC(=O)N[C@@H](Cc1cnc[nH]1)C(=O)O` [Car, carnosine], the “prevention of HSA-MG-H1 formation” value in data set [2] is “nor did it prevent”. Moreover, the “MG scavenging (in words)” value in [3] is recorded as “neither scavenged MG”.

`CN(CC(=O)O)C(=N)N` [Cre, creatine]: the “MG scavenging (in words)” value in data set [3] is on record as “fastest of the endogenous MG scavengers tested”.

With `CCCCCCCCCCCCCC(=O)NCCCC[C@@H]1NC(=O)[C@H](CCCCNC(=O)CN2CCN(CC(=O)O)CCN(CC(=O)O)CCN(CC(=O)O)CC2)NC(=O)CC[C@@H](C(=O)O)NC(=O)[C@H](CCCNC(=N)N)NC(=O)[C@H](CCCNC(=N)N)NC(=O)[C@H](CCCNC(=N)N)NC(=O)[C@H](CCCNC(=N)N)NC1=O` [CycK(DOTA)K(Myr)R4E] (K(DOTA)K(Myristoyl)RRRRE-OH; lactam N-7), in [1], the “SUV in the bladder” value is recorded as “lower”; the “SUV in the kidney” value was “similar”; the “SUV values in the heart, muscle and liver” value is “higher”; the “accumulation in the kidneys” value was “strong accumulation in the kidneys”. The “circulates for” value in data set [1] is “over 140 min”. The same molecule returned a peptide remaining in [4] of 86.16%.

On to `CCCCCCCCCCCCCC(=O)NCCCC[C@@H]1NC(=O)CC[C@@H](C(=O)O)NC(=O)[C@H](CCCNC(=N)N)NC(=O)[C@H](CCCNC(=N)N)NC(=O)[C@H](CCCNC(=N)N)NC(=O)[C@H](CCCNC(=N)N)NC1=O` [CycK(Myr)R4E] (K(Myristoyl)RRRRE-OH; lactam N-6), for which the “concentration above which significant hemolysis is displayed” value in the data set with washed human whole blood [5] was “over 50 μM”.

The term half-life denotes the time in which the quantity being followed falls by half. A higher half-life goes with slow loss. Consider `N=C(N)NCCC[C@@H]1NC(=O)[C@H](CCCNC(=N)N)NC(=O)[C@H](CCCNC(=N)N)NC(=O)[C@H](CCCNC(=N)N)NC(=O)[C@H](CCCCNC(=O)CCC(NC(=O)CCCCCCCCCCCCCCC(=O)O)C(=O)O)NC(=O)CC[C@@H](C(=O)O)NC1=O` (stereo partly shown) [CycK(e-Hdd)R4E] (K([ξγGlu-C16 diacid])RRRRE-OH; lactam N-6), for which the “prevention of modification of HSA with MG-H1” value in data set [2] (FIG. 9, peptides 400 μM, HSA 400 μM, MG 200 μM) is on record as “significantly prevented”. In addition, in the data set on washed human whole blood [6], the “hemolysis (in words)” value is reported as “does not cause hemolysis even at high concentrations”. Moreover, the “MG t1/2” value in data set [7] is on record as 1.1 h. The same molecule gave a half-life in “in vivo” of approximately 8 h. Besides, the “viability relative to untreated cells” value in [8] is 75%.

`CCCCCCCCCCCCCC(=O)NCCCC[C@H](NC(=O)[C@@H](N)CCCCNC(=O)CN1CCN(CC(=O)O)CCN(CC(=O)O)CCN(CC(=O)O)CC1)C(=O)N[C@@H](CCCNC(=N)N)C(=O)N[C@@H](CCCNC(=N)N)C(=O)N[C@@H](CCCNC(=N)N)C(=O)N[C@@H](CCCNC(=N)N)C(=O)N[C@@H](CCC(=O)O)C(=O)O` [K(DOTA)K(Myr)R4E] (H-K(DOTA)K(Myristoyl)RRRRE-OH; N-terminus assumed): the peptide remaining in [4] was found to be 33.4%.

With `CN(C)C(=N)N=C(N)N` [Met, metformin], the “prevention of HSA-MG-H1 formation” value in data set [2] is reported as “did not significantly prevent”. For the same molecule, in data set [9], the “MG-metformin adduct concentration in the urine” value is “up to 4 μM”.

In the case of `Cc1ncc(CO)c(CN)c1O` [Pyr, pyridoxamine], in [2], the “prevention of HSA-MG-H1 formation” value is “did not significantly prevent”.
